In paper PMC6271143, “Novel Triphenylantimony(V) and Triphenylbismuth(V) Complexes with Benzoic Acid Derivatives: Structural Characterization, in Vitro Antileishmanial and Antibacterial Activities and Cytotoxicity against Macrophages” (Molecules, 2014):
≈ marks a conversion by molar mass, not a printed value. Like-named read-outs stand apart in the source and are kept apart here.

Legend:
[1] = test system: L. amazonensis promastigotes; design: method as in PMID 23099618; settings: read-out: IC50 (μM) ± SEM, L. amazonensis strain; cited from earlier work
[2] = test system: L. infantum promastigotes; assay: Antileishmanial activity assay (growth inhibition, absorbance at 600 nm) against L. infantum promastigotes; assay type: cell-based, Leishmania infantum (strain MCAN/BR/2002/BH400); settings: for IC50: promastigotes, IC50/72 h (source says 48 h), non-linear regression, read-out: IC50 (μM) ± SEM, L. infantum strain
Description: (§1) The four complexes, their metal salts and their respective free ligands were primarily tested for their activity to investigate whether they inhibit the growth of L. amazonensis and L. infantum promastigotes. The growth rate of the promastigotes incubated for […] in the presence of test compounds was compared to those of nontreated negative control and to those treated with the standard antileishmanial antimony(III) drug tartar emetic.
(§2) Leishmania amazonensis (strain MHOM/BR/1989/BA199) and Leishmania infantum (strain MCAN/BR/2002/BH400) promastigotes were maintained in minimum essential culture medium (α-MEM) (Gibco, Invitrogen, Grand Island, NY, USA) supplemented with 10% (v/v) heat inactivated fetal calf serum (Cultilab, Campinas, SP, Brazil), […] kanamycin, […] ampicillin, 2 mM L-glutamine, […] hemin, 5 mM biopterin, (Sigma-Aldrich), pH 7.0 and incubated at 25 °C [52].
(§3) Complexes 1-4 were evaluated in vitro for their activity against two wild type Leishmania parasites. Log-phase L. amazonensis and L. infantum promastigotes (1 × 10^6 parasites/mL) were seeded in 24-wells cell culture plates with 1.5 mL of α-MEM, incubated under shaking at 25 °C during 72 h in the presence of several concentrations of complex 1–4, free ligands HL1-2, and metal precursors M1-2. Non-treated parasites in the presence of DMSO solution and absence of any test compound were established for growth comparison. Stock solutions of the ligands, 2-acetylsalicylic acid and 3-acetoxybenzoic acid, their metal complexes 1–4, and metal salts, Ph3SbCl2 and Ph3BiCO3 were dissolved in DMSO and diluted in α-MEM cell culture medium to obtain the range of tested concentrations. […] For drug susceptibility assay, Leishmania growth curves were constructed by measuring absorbance at 600 nm. The antileishmanial activity is expressed as IC50/72 h, which is the concentration that reduces cell growth by 50% compared to untreated control (relative growth). All experiments were done at least three times as independent experiments performed in triplicate.
(§4) The IC50 and CC50 values were calculated by nonlinear regression using the software GraphPad Prism 5.0. The acceptable level of significance was 95% (p < 0.05).

[3] = test system: Pseudomonas aeruginosa (ATCC 27853); assay: Minimum inhibitory concentration, broth dilution (NCCLS M7-A6), P. aeruginosa; assay type: cell-based; settings: visual, 24 h at 37 °C
Description: (§5) Antimicrobial activity tests were performed in a quantitative way by determining the minimum inhibitory concentration (MIC) by the standard method for in vitro anti-bacterial susceptibility testing proposed by the National Committee for Clinical Laboratory Standards [NCCLS M7-A6] [56]. Sthaphyloccocus aureus [ATCC6538] and Pseudomonas aeruginosa [ATCC27853] stored in Müller–Hilton broth were sub-cultured for testing in the same medium and incubated for 24 h, respectively, at 37 °C. The bacterial cells of the two strains were suspended in Müller-Hilton broth to produce inocula of 10^8 CFU mL^–1, determined by a spectrophotometric method. Serial dilutions of the compounds, previously dissolved in DMSO, were prepared in 10 test tubes with Müller–Hilton broth to final concentrations from 100 μg mL^–1 to 0.20 μg mL^–1 for P. aeruginosa and S. aureus. An old inoculum of each strain was added to the tubes to obtain final concentrations of 10^5 CFU. […] Tests using tetracycline as positive control and DMSO as negative control were carried out in parallel. All tests were performed in triplicate with full agreement between the results.

[4] = test system: Staphyloccocus aureus (ATCC 6538); assay: Minimum inhibitory concentration, broth dilution (NCCLS M7-A6), S. aureus; assay type: cell-based, Staphylococcus aureus; settings: for MIC: ATCC 6538, 100% inhibition of growth, visual, 24 h at 37 °C; for d SI (selective index): ratio between MIC in murine macrophages and MIC in Staphylococcus aereus: as printed in footnote d
Description: as §5

[5] = test system: L. amazonensis promastigotes; assay: Antileishmanial activity assay (growth inhibition, absorbance at 600 nm) against L. amazonensis promastigotes; assay type: cell-based, Leishmania amazonensis (strain MHOM/BR/1989/BA199); settings: for IC50: promastigotes, IC50/72 h (source says 48 h), non-linear regression, read-out: IC50 (μM) ± SEM, L. amazonensis strain
Description: as §1, §2, §3, §4

[6] = test system: mouse peritoneal macrophages; assay: Cytotoxicity (MTT assay) against mouse peritoneal macrophages; assay type: cell-based, mouse (Balb/c); settings: 24 h, murine peritoneal macrophages, read-out: CC50: concentration that is cytotoxic against 50% of macrophages
Description: (§6) The in vitro cytotoxicity of the complexes, along their metal salts and ligands, was evaluated by means of the MTT assays towards mouse peritoneal macrophages. The results of in vitro cytotoxic activity are expressed as CC50, which is the concentration of compound that inhibits the viability of macrophages by 50% as compared to untreated macrophages control.
(§7) The concentration of studied compounds that is cytotoxic to 50% of the macrophages (CC50) was determined by the 3-(4,5-dimethylthiazol-2-yl)-2,5 diphenyltetrazolium bromide (MTT) method according to Mosmann. Briefly, peritoneal macrophages were obtained from Balb/c mice after intraperitoneal injection of 2 mL of 3% sodium thioglycolate medium. Mice were euthanized after 72 h, just before removal of peritoneal macrophages by washing with cold RPMI 1640 medium. The procedure was approved by the Internal Ethics Committee in Animal Experimentation (CEUA) of the Federal University of Uberlândia (Protocol 069/2013). After washing, the cell suspension (4.0 × 10^6/mL) was seeded (0.1 mL) in 96-well flat bottom plates. Macrophages were allowed to adhere for 2 h and non-adherent cells were removed by washing with RPMI. Then, the compounds were added to the wells at different concentrations and the cells were further cultured in RPMI-1640 supplemented with 10% FBS for 24 h at 37 °C in a humidified 5% CO2 atmosphere. Thereafter, the medium was replaced with fresh RPMI containing 0.5 mg/mL of MTT and the plates were incubated for additional 4 h. Supernatants were aspirated and the formazan crystals formed were dissolved in 100 μL of DMSO. After 15 min of incubation at room temperature, absorbance of solubilized MTT formazan product was spectrophotometrically measured at 570 nm.
as §4

Leishmania promastigotes = test system: Leishmania promastigotes; design: method as in PMID 19633606; settings: cited from earlier work
[7] = test system: Pseudomonas aeruginosa (ATCC 27853); assay: Minimum inhibitory concentration, broth dilution (NCCLS M7-A6), P. aeruginosa; assay type: cell-based; settings: as printed in footnote c
[8] = test system: L. infantum promastigotes; assay: Antileishmanial activity assay (growth inhibition, absorbance at 600 nm) against L. infantum promastigotes; assay type: cell-based, Leishmania infantum (strain MCAN/BR/2002/BH400); settings: Leishmania infantum, IC50/72 h (source says 48 h), non-linear regression, read-out: IC50 (μM) ± SEM, L. infantum strain
[9] = as above; assay type: cell-based, Leishmania infantum (strain MCAN/BR/2002/BH400); settings: Balb/c, mouse (macrophages); Leishmania infantum (promastigotes), pH 7; CC50 macrophages / IC50 L. infantum; read-out: a SI (selective index): ratio between CC50 in murine macrophages and IC50 in L. infantum
Description: as §1, §2, §3, §4

[10] = Antileishmanial activity assay (growth inhibition, absorbance at 600 nm) against L. amazonensis promastigotes; assay type: cell-based, Leishmania amazonensis (strain MHOM/BR/1989/BA199); settings: Balb/c, mouse (macrophages); Leishmania amazonensis (promastigotes), pH 7; CC50 macrophages / IC50 L. amazonensis; read-out: b SI (selective index): ratio between CC50 in murine macrophages and IC50 in L. amazonensis (WT)
Description: as §1, §2, §3, §4

[11] = Cytotoxicity (MTT assay) against mouse peritoneal macrophages; assay type: cell-based, mouse (Balb/c); settings: Balb/c, mouse, mouse peritoneal macrophages, murine peritoneal macrophages, read-out: CC50: concentration that is cytotoxic against 50% of macrophages
Description: as §6, §7, §4

[12] = test system: Pseudomonas aeruginosa (ATCC 27853); design: method as in doi:10.1016/j.molstruc.2010.11.048; settings: cited from earlier work
[13] = Pseudomonas aeruginosa, ATCC27853, 100% inhibition of growth
[14] = Staphylococcus aureus, ATCC6538

Row | Compound | IC50 [2] | a SI (selective index): ratio between CC50 in murine macrophages and IC50 in L. infantum [2] | MIC ([3]; 100% inhibition of growth) | MIC [4] | b SI (selective index): ratio between CC50 in murine macrophages and IC50 in L. amazonensis (WT) [5] | IC50 [5] | CC50 [6] | other results
1 | O=C([O-])[C@H]([O-])[C@@H]([O-])C(=O)[O-].O=C([O-])[C@H]([O-])[C@@H]([O-])C(=O)[O-].[K+].[K+].[Sb+3].[Sb+3] [TA, potassium antimony tartrate] | 100 ± 3 µM | – | – | – | – | – | – | IC50 [1]: 83 ± 1 µM
2 | [Cl][Sb]([Cl])([c]1ccccc1)([c]1ccccc1)[c]1ccccc1 [Complex M1, triphenylantimony(V) dichloride] | 13.2 ± 2.03 µM | 1.7 | 235.8 µM | 235.8 µM | 2.4 | 9.3 ± 0.26 µM | 22.7 ± 0.93 µM | –
3 | meglumine antimoniate | – | – | – | – | – | – | – | activity in the promastigotes model (Leishmania promastigotes): inactive
4 | CC(=O)Oc1cccc(C(=O)[O][Bi]([O]C(=O)c2cccc(OC(C)=O)c2)([c]2ccccc2)([c]2ccccc2)[c]2ccccc2)c1 [Complex 4, Bis-(3-acetoxybenzoato)triphenylbismuth(V)] | 4 ± 0.39 µM | <1 | 16.5 µM | 4.1 µM | <1 | 2.9 ± 0.17 µM | 2 ± 0.1 µM | –
5 | CC(=O)Oc1ccccc1C(=O)O [HL1, acetylsalicylic acid] | – | – | – | – | – | – | – | c SI (selective index): ratio between CC50 in murine macrophages and MIC in Pseudomonas aureginosa [7]: <1; IC50 [8]: 8990 µM; selectivity ratio at 72 h [9]: < 1; MIC [3, 13]: > 555 µM; MIC [4, 14]: > 555 µM; d SI (selective index): ratio between MIC in murine macrophages and MIC in Staphylococcus aereus [4]: <1; selectivity ratio at 72 h [10]: < 1; CC50 at 24 h [11]: 580.1 ± 1.07 µM
6 | CC(=O)Oc1ccccc1C(=O)[O][Sb]([O]C(=O)c1ccccc1OC(C)=O)([c]1ccccc1)([c]1ccccc1)[c]1ccccc1 [Complex 1, Bis-(acetylsalicylato)triphenylantimony(V)] | 13.3 ± 0.74 µM | 4.51 | 140.6 µM | 140.6 µM | 2.0 | 30.7 ± 3.43 µM | 60.5 ± 3.4 µM | –
7 | CC(=O)Oc1cccc(C(=O)O)c1 [HL2, 3-acetoxybenzoic acid] | – | – | – | – | – | – | – | c SI (selective index): ratio between CC50 in murine macrophages and MIC in Pseudomonas aureginosa [7]: <1; selectivity ratio at 72 h [9]: < 1; MIC [3, 13]: > 555 µM; MIC [4, 14]: > 555 µM; d SI (selective index): ratio between MIC in murine macrophages and MIC in Staphylococcus aereus [4]: <1; selectivity ratio at 72 h [10]: < 1; CC50 at 24 h [11]: 2768 ± 9 µM
8 | O=C([O-])[O-].c1cc[c]([Bi+2]([c]2ccccc2)[c]2ccccc2)cc1 [Complex M2, triphenylbismuth carbonate] | 1.1 ± 0.37 µM | 10.6 | 48.9 µM | 24.5 µM | 4.6 | 2.7 ± 0.34 µM | 12.1 ± 0.45 µM | –
9 | CN(C)[C@@H]1C(O)=C(C(N)=O)C(=O)[C@@]2(O)C(O)=C3C(=O)c4c(O)cccc4[C@@](C)(O)[C@H]3C[C@@H]12 [Tetracycline, tetracycline] | – | – | – | – | – | – | – | MIC, P. aeruginosa [12]: >96.7 [48] μM; MIC [4, 14]: 3.5 µM (≈ 1.56 µg/mL)
10 | Bis-(3-acetoxybenzoato)triphenylantimony(V) [Complex 2] | 12.2 ± 0.91 µM | 2.45 | 140.6 µM | 140.6 µM | 3.40 | 8.9 ± 0.36 µM | 30 ± 2.3 µM | –
11 | CC(=O)Oc1ccccc1C(=O)[O][Bi]([O]C(=O)c1ccccc1OC(C)=O)([c]1ccccc1)([c]1ccccc1)[c]1ccccc1 [Complex 3, Bis-(acetylsalicylato)triphenylbismuth(V)] | 8.6 ± 1.36 µM | 0.74 | 8.2 µM | 4.1 µM | 0.75 | 8.5 ± 0.56 µM | 6.4 ± 0.5 µM | –
